Test results from US9415122B2, “Methods and compositions for the detection of cancer cells” (priority 2008, dated 2016).
Like-named read-outs stand apart in the source and are kept apart here. Where no end group is shown, it is not given here.

How the values were obtained:
LN-229-GFP flank tumors = test: Histologic probe labeling of LN-229-GFP flank tumor tissue sections; assay type: binding, human; conditions: probe 1 μM, 1 hour, room temperature
Protocol: Tumors were embedded in Tissue Freezing Medium (Electron Microscopy Sciences, Hatfield, Pa.) in a dry ice ethanol slurry and cryosectioned at 7-μm intervals.
For probe labeling, tissue sections were blocked with 2% goat serum in phosphate-buffered saline for 20 minutes at room temperature, then incubated with SBK2-Texas Red or scrambled Texas Red probes diluted to 1 μMin block buffer for 1 hour at room temperature in dark conditions. The sections were rinsed with phosphate-buffered saline, coverslipped with Citifluor Antifadent Mounting Medium (Electron Microscopy Sciences), and imaged immediately at ×20 magnification on a Leica DMI 6000 B inverted microscope (Leica Microsystems GmbH, Wetzlar, Germany) using a Retiga EXi camera (QImaging, Surrey, BC) and Metamorph software (MolecularDevices, Downington, Pa.). Images were acquired across the entire tissue using bright-field and fluorescence optics for fluorescein (GFP) and Texas Red (probe). The resultant images were tiled and flattened to form a single composite image using Metamorph software. A human specific Vimentin antibody (clone SP20; Thermo Fisher Scientific, Fremont, Calif.) was used to detect the implanted LN-229 tumor cells and imaged as above.

[1] = tested on: LN-229-GFP intracranial tumors; test: In vivo labeling of LN-229-GFP intracranial tumors with Cy5 probes, 3-D cryo-imaging; design: species or system mouse; conditions: for Cy5 fluorescence of main tumors and dispersed cell populations: LN-229 tumors, i.v. probe, 90 min clearance
From the text: Individual slice images were manually edited if necessary.
Total fluorescence signal was then normalized for tumor volume.

[2] = Mouse health after multiple doses of Cy5 probes; assay type: in vivo; conditions: delivery of multiple doses
Protocol: (§1) Imaging experiments were performed at 10-11 days for CNS-1 and 4-8 weeks for LN-229, to allow for optimal tumor growth and cell dispersal in these two cell lines. […] Following a 90-min interval for clearance of unbound probe, the animals were sacrificed and the brains removed for whole-brain imaging using the MAESTRO FLEX In-Vivo Imaging System (Cambridge Research & Instrumentation, Inc. (CRi), Woburn, Mass.) Immediately after imaging, the brains were embedded in Tissue-Tek OCT compound (Sakura Finetek U.S.A., Inc. Torrance, Calif.), frozen in a dry ice/ethanol slurry and cryo-imaged.

[3] = tested on: CNS-1-GFP intracranial tumors; conditions: for Cy5 fluorescence intensity of main tumors and dispersed cell populations: CNS-1 tumors, i.v. probe, 90 min clearance, normalized to background and tumor volume; for labeling of tumor (Cy5 signal) in words: intracranial glioma tumors, i.v. administration (FIG. 4)
Protocol: as §1
Frozen brains were alternately sectioned and imaged using the previously described Case Cryo-Imaging System at a section thickness of 15 μm and a resolution of 11×11×15 μm. Brightfield and fluorescence images were acquired for each of the brains using a low light digital camera (Retiga Exi, QImaging Inc., Canada), an epi-illumination fluorescent light source (Lumen200 PRO, Prior Scientific' Rockland, Mass.) and fluorescence filters for GFP (Exciter: HQ470/40x, Dichroic: Q495LP, Emitter: HQ500LP) or Cy5 (Exciter: FF01-628/40-25, Dichroic: FF660-Di01−25×36, Emitter: FF01-692/40-25; Semrock, Rochester, N.Y.). Single GFP expressing cells were readily detected with this system. […] Eight brains implanted with CNS-1-GFP cells and six brains with LN-229-GFP cells were analyzed.
Briefly, the main tumor mass was segmented using a fast 3-D region growth algorithm with intensity and gradient-based inclusion/exclusion criteria. Individual slice images were manually edited if necessary. Dispersed cells and clusters were detected by thresholding a Gaussian high pass filter image, discounting the masked main tumor mass. […] Light scattering in tissue might appear as a false positive signal in Cy5 volumes, However, we processed Cy5 volumes with a next-image processing algorithm, and used attenuation and scattering parameters for brain tissue that were previously described. Similar parameters were applied for both SBK2-Cy5 and scrambled-Cy5 volumes. To find co-labeled cells/clusters we applied a logical AND operator between the dispersed cell and Cy5 volumes. The lower limit for the blood vessel detection algorithm was ˜30 μm diameter. 3-D volumes of tumor, dispersed cells, Cy5 labeled cells, and vasculature were rendered using Amira software (Visage Imaging Inc., San Diego, Calif.), with modifications developed expressly for cryo-image data. Pseudo-colors were chosen to give the best contrast between the different data volumes.

prostate tumors = test: Labeling of prostate tumors with PTPμ probe (FIG. 3)
LN-229 flank tumors = conditions: 0.1 mmol/kg i.v.
From the text: Cells were infected with lentivirus encoding green fluorescent protein (GFP), diluted in BD Matrigel Matrix (BD Biosciences, Franklin Lakes, N.J.), and injected into both flanks of female nude athymic mice (NCr-nu/+, NCr-nu/nu, 20-25 g each). Approximately 1.4×10^6 cells were implanted per flank. To correlate tumor position with GFP fluorescence, mice were imaged using the Maestro FLEX In Vivo Imaging System as previously described. Tumor area was approximately 0.5 cm^2, as measured from GFP fluorescence images acquired with the Maestro just before MRI.
The MRI study was performed using a Bruker Biospec 7-T MRI scanner (Bruker Corp, Billerica, Mass.) with a 72-mm diameter cylindrical radio frequency coil. Mice bearing LN-229 flank tumors were imaged at 2 to 5 weeks after tumor implant. […]
Image analysis was performed by using Bruker ParaVision 4.0 imaging software. Regions of interest were drawn over the whole tumor in the 2D imaging plane and average signal intensity was measured. Contrast-to-noise ratios (CNRs) in the tumor were calculated at each time point and averaged from different mice (n=3) using the following equation: CNR=(St−Sm)/(δn), where St and Sm denote the signal in tumor and adjacent thigh muscle and δn is the SD of noise estimated from the background air. The P values were calculated using a two-tailed Student's t test, assuming statistical significance at P<0.05. […]

Compound | labeling of flank tumor sections (LN-229-GFP flank tumors) | Cy5 fluorescence of main tumors and dispersed cell populations [1] | effects on mouse health [2] | Cy5 fluorescence intensity of main tumors and dispersed cell populations [3] | labeling of tumor (Cy5 signal) in words [3] | pattern of tumor enhancement on T1-weighted images / heat maps (LN-229 flank tumors) | other results
scrambled Texas Red: scrambled peptide probe labeled with Texas Red (GFTQPETGTDNDLWSVDNEK; not fully specified (N-terminus); also: labeled with Texas Red, site not given here) [reference compound] | did not label the tumor |  |  |  |  |  | 
SBK2-Cy5: SBK2 peptide (SEQ ID NO: 5) with additional N-terminal glycine conjugated to Cy5 NHS ester dye (Cy5-GEGDDFNWEQVNTLTKPTSD) |  | 114.7+/−25.9 | did not result in deleterious effects | 73.5+/−16.2 | brightly labeled |  | dispersed cell population labeled ([1]; LN-229-GFP intracranial tumors): greater than 99%; labeling of main GFP-positive tumor in words ([1]; LN-229-GFP intracranial tumors): bright Cy5 fluorescence signal; blood-brain barrier crossing ([3]; mouse, in vivo, iv): crosses the blood-brain barrier
SBK2-Texas Red: SBK2 peptide probe labeled with Texas Red (EGDDFNWEQVNTLTKPTSD; not fully specified (N-terminus); also: labeled with Texas Red, site not given here) | labeled the entire tumor with greatest intensity in the tumor center |  |  |  |  |  | recognition of prostate tumors (prostate tumors): recognized
scrambled Tris-(Gd-DOTA)3: scrambled SBK2 peptide (SEQ ID NO: 10) linked to Gd-DOTA; nontargeted control agent (CGFTQPETGTDNDLWSVDNEK; numbers in words are those of the source; also: Tris-(Gd-DOTA)3 conjugate, attachment site not given here) [reference compound] |  |  |  |  |  | enhanced contrast of the tumor edge compared with the tumor center | 
CC(O)CN1CCN(CC(=O)[O-])CCN(CC(=O)[O-])CCN(CC(=O)[O-])CC1.[Gd+3] (centres unmarked) [ProHance, Gadoteridol, reference compound] |  |  |  |  |  | enhanced contrast of the tumor edge compared with the tumor center | 
scrambled-Cy5: scrambled sequence of the SBK2 peptide (SEQ ID NO: 10) conjugated to Cy5 dye; control probe (GFTQPETGTDNDLWSVDNEK; also: Cy5 dye conjugate, attachment site not given here) [reference compound] |  | 5.8 | did not result in deleterious effects | 7.2+/−2.3 | did not label tumors |  | labeling of tumor (Cy5 signal) in words ([3]; listed as scrambled probe): no significant signal above background
